Assays:
S9 degradation test = type: in vitro ADME, rats; conditions: rat liver S9 Mix, 5 μg/ml, 37° C., HPLC
Procedure: Six-week old male SD rats (Charles River Japan) were purchased and acclimatized for 1 week. After the acclimatization for 1 week, the rats were weighed and bled by decapitation. The liver was extracted and washed three times with chilled 0.15 M KCl. After the washing, wet weight of the liver was determined, and the liver was added with the three-times weight of chilled 0.15 M KCl and placed in a homogenizer. The liver was homogenized, and the homogenate was centrifuged with cooling at 9000 g for 10 minutes. The supernatant obtained was designated S9 and stored below −80° C.
The stored S9 was thawed in running water. The thawed S9 (0.1 ml) was added with 0.4 M MgCl2 (0.02 ml), 1.65 M KCl (0.02 ml) and 0.2 M Na phosphate buffer (pH 7.4, 0.5 ml), added with glucose-6-phosphate (Oriental Yeast), NADPH (Oriental Yeast) and NADH (Oriental Yeast) so as to give a concentration of 4 μM, and added with distilled water to give a total volume of 1 ml (this solution is referred to as “S9 Mix”). S9 Mix (0.1 ml) was added with a test substance so as to give a concentration of 5 μg/ml and shaken at 37° C. under reciprocal movement. The weight of the test substance (unchanged substance) with passage of time in the S9 Mix was measured by HPLC. The test substance was dissolved in dimethyl sulfoxide (Wako Pure Chemical Industry) beforehand. The results are shown as percentage values of the amount of the unchanged substance after 30 minutes based on the amount of the unchanged substance immediately after the addition to S9 Mix, which is taken as 100%. […]

ICR male mice = test: Toxicity test by continuous administration for three days in mice (MTD); type: in vivo
Procedure: Six-week old ICR male mice (Charles River Japan) were purchased, and after quarantine for 1 week, acclimatized in a clean animal cage (air-conditioning: HEPA filter of class 1000, room temperature: 20 to 24° C., humidity: 35 to 60%). Then, in order to obtain an MTD value, a liposome preparation was administered from the caudal vein. The liposome preparation was administered by using physiological saline (Hikari Pharmaceutical) or a glucose solution (Otsuka Pharmaceutical) as a solvent. On the basis of the MTD value obtained, the liposome preparation was administered from the caudal vein every three consecutive days in an amount corresponding to ½ of the MTD value (n=3). The symptoms were observed up to 6 hours after each administration, and autopsy was performed after completion of the administration to examine major organs. As a result, no abnormality was recognized. […]

Wistar rats = test: Neurotoxicity test in Wistar rats; type: in vivo; design: key to Neurotoxicity (+: present, −: absent): +: present; −: absent
Procedure: Six-week old male Wistar rats (Charles River Japan) were purchased, and after quarantine for 1 week, acclimatized in a clean animal cage (air-conditioning: HEPA filter of class 1000, room temperature: 20 to 24° C., humidity: 35 to 60%). […]. The liposome preparation was administered by using physiological saline (Hikari Pharmaceutical) or a glucose solution (Otsuka Pharmaceutical) as a solvent.
In the same manner as in Test Example 4, the neurotoxicity test using a Wistar rat was performed.

[1] = tested on: arteriosclerotic lesions in rat aortas; test: X-ray radiography of rat arteriosclerotic lesion; type: in vivo; conditions: liposome preparation, 200 mg/kg from the cervical vein
Procedure: According to the method described in Invest. Radiol., 18, 275 (1985), arteriosclerotic lesions were formed in rat aortas. The liposome preparation of 1A-4-1 prepared above was carefully administered to the rats with the formed arteriosclerotic lesions were formed from the cervical vein in an amount of 200 mg/kg.
In the same manner as in Test Example 2, the liposome preparation of 1B-1-3 prepared above was carefully administered from the cervical vein to the rats with the formed arteriosclerotic lesions in an amount of 200 mg/kg.

[2] = tested on: vascular smooth muscle cells; test: Uptake amount of iodine atoms by vascular smooth muscle cells (mixed culture with macrophage); type: cell-based; conditions: liposome PC 50 nmol + PS 50 nmol + compound 75 nmol; cultured at 37° C. under 5% CO2 for 24 hours
Procedure: Dipalmitoyl-PC (Funakoshi, No. 1201-41-0225) and dipalmitoyl-PS (Funakoshi, No. 1201-42-0237) at the ratio shown below were dissolved in chloroform together with each of the iodine compounds of the present invention in an eggplant-shaped flask according to the method described in J. Med. Chem., 25 (12), 1500 (1982) to form a uniform solution. Then, the solvent was evaporated under reduced pressure to form a thin membrane on the bottom of the flask bottom. This thin membrane was dried in vacuum, then added with an appropriate amount of 0.9% physiological saline (Hikari Pharmaceutical, No. 512) and subjected to ultrasonication (No. 3542 probe type oscillator, Branson, 0.1 mW) for 5 minutes to obtain a uniform liposome dispersion. The diameters of the liposomes in the resulting dispersion were measured by using WBC analyzer (A-1042, Nihon Kohden). […] The liposome preparations mentioned below, which were produced by the above method, were each added to a mixed culture system of vascular smooth muscle cells and macrophage described in International Publication WO 01/82977. The cells were cultured at 37° C. under 5% CO2 for 24 hours, and the amounts of the iodine compounds taken up into the vascular smooth muscle cells were each quantified.
In the same manner as in Test Example 1, liposome preparations containing dipalmitoyl-PC (Funakoshi, No. 1201-41-0225) and dipalmitoyl-PS (Funakoshi, No. 1201-42-0237) at the ratio shown below were prepared. […] The liposome preparations produced by the above method were each added to a mixed culture system of vascular smooth muscle cells and macrophage described in International Publication WO 01/82977. The cells were cultured at 37° C. under 5% CO2 for 24 hours, and the amounts of the iodine compounds taken up into the vascular smooth muscle cells were each quantified.

[3] = J. Med. Chem., 25, 1500 (1982); cited from earlier work
[4] = liposome preparation administered from the caudal vein, ICR male mice
[5] = liposome preparation from the caudal vein, 1/2 of the MTD value, after pentobarbital, observed up to 4 hours

| Structure (SMILES) | amount of the unchanged substance after 30 minutes based on the amount immediately after the addition to S9 Mix (100%) (S9 degradation test) | MTD (ICR male mice; [4]) | further results |
| --- | --- | --- | --- |
| NC(=O)CCC(=O)OC(COC(=O)CCCCCCCCCCOc1c(I)cc(I)cc1I)COC(=O)CCCCCCCCCCOc1c(I)cc(I)cc1I [Compound 1A-4-2] | 1A-4-2: 10% | – | – |
| O=C(CCCCCCCCCCOc1c(I)cc(I)cc1I)OCC(COC(=O)CCCCCCCCCCOc1c(I)cc(I)cc1I)OCC(=O)N1CCOCC1 [Compound 1A-5-1] | 1A-5-1: 9% | 800 mg/kg | Neurotoxicity (+: present, −: absent) (Wistar rats; rat, in vivo): (−) |
| O=C(CCCCCCCCCCOc1c(I)cc(I)cc1I)OCC(COC(=O)CCCCCCCCCCOc1c(I)cc(I)cc1I)OC(=O)CCCCN1CCOCC1 [Compound 1A-3-3] | 1A-3-3: 64% | 1000 mg/kg | Neurotoxicity (+: present, −: absent) (Wistar rats; rat, in vivo): (−) |
| CN(C)C(=O)COC(COC(=O)CCCCCCCCCCOc1c(I)cc(I)cc1I)COC(=O)CCCCCCCCCCOc1c(I)cc(I)cc1I [Compound 1A-5-3] | 1A-5-3: 52% | – | – |
| C[N+](C)(C)CCOP(=O)([O-])OC(COC(=O)CCCCCCCCCCOc1c(I)cc(I)cc1I)COC(=O)CCCCCCCCCCOc1c(I)cc(I)cc1I [Compound 1B-1-3] | 1B-1-3: 4% | 2000 mg/kg | X-ray radiography images of arteriosclerotic lesions ([1]; one minute after the administration): clearly contrasted images of arteriosclerotic lesions were obtained; Uptake amount [2]: 59.8 × 10^−3 nmol/μg protein; Neurotoxicity (Wistar rats; rat, in vivo): no neurotoxicity was observed |
| O=C(CCCCCCCCCCOc1c(I)cc(I)cc1I)OCC(COC(=O)CCCCCCCCCCOc1c(I)cc(I)cc1I)OC(=O)COC(CO)CO [Compound 1A-6-9] | 1A-6-9: 13% | 800 mg/kg | – |
| CN(C)C(=O)CCC(=O)OC(COC(=O)CCCCCCCCCCOc1c(I)cc(I)cc1I)COC(=O)CCCCCCCCCCOc1c(I)cc(I)cc1I [Compound 1A-4-3] | 1A-4-3: 5% | – | – |
| CCC(Cc1c(I)cc(I)c(N)c1I)C(=O)OC1CCC2(C)C(=CCC3C2CCC2(C)C(C(C)CCCC(C)C)CCC32)C1 (stereo not shown) [Cholesterol iopanoate] | – | – | Accumulation in the liver [3]: known to accumulate in the liver of a living body |
| O=C(CCCCCCCCCCOc1c(I)cc(I)cc1I)OCC(COC(=O)CCCCCCCCCCOc1c(I)cc(I)cc1I)OC(=O)CCN1CCOCC1 [Compound 1A-3-1] | 1A-3-1: 58% | – | – |
| NC(=O)COC(COC(=O)CCCCCCCCCCOc1c(I)cc(I)cc1I)COC(=O)CCCCCCCCCCOc1c(I)cc(I)cc1I [Compound 1A-5-2] | 1A-5-2: 60% | – | – |
| CCOCCOCCOCCOC(=O)CCC(=O)OC(COC(=O)CCCCCCCCCCOc1c(I)cc(I)cc1I)COC(=O)CCCCCCCCCCOc1c(I)cc(I)cc1I [Compound 1A-4-5] | 1A-4-5: 38% | – | MTD (ICR male mice; mouse, in vivo): 800 mg/kg; Neurotoxicity (+: present, −: absent) (Wistar rats; [5]): (−) |
| O=C(CCCCCCCCCCOc1c(I)cc(I)cc1I)OCC(COC(=O)CCCCCCCCCCOc1c(I)cc(I)cc1I)OC(=O)CCCN1CCOCC1 [Compound 1A-3-2] | 1A-3-2: 60% | 800 mg/kg | – |
| O=C(O)COC(COC(=O)CCCCCCCCCCOc1c(I)cc(I)cc1I)COC(=O)CCCCCCCCCCOc1c(I)cc(I)cc1I [Compound 1A-5-4] | 1A-5-4: 20% | – | MTD (ICR male mice; mouse, in vivo): 800 mg/kg; Neurotoxicity (+: present, −: absent) (Wistar rats; [5]): (−) |
| O=C(O)CCC(=O)OC(COC(=O)CCCCCCCCCCOc1c(I)cc(I)cc1I)COC(=O)CCCCCCCCCCOc1c(I)cc(I)cc1I [Compound 1A-4-4] | 1A-4-4: 24% | – | MTD (ICR male mice; mouse, in vivo): 800 mg/kg; Neurotoxicity (+: present, −: absent) (Wistar rats; [5]): (−) |
| O=C(CCCCCCCCCCOc1c(I)cc(I)cc1I)OCC(COC(=O)CCCCCCCCCCOc1c(I)cc(I)cc1I)OC(=O)CCC(=O)N1CCOCC1 [Compound 1A-4-1] | 1A-4-1: 59% | 1000 mg/kg | X-ray radiography images of arteriosclerotic lesions ([1]; ten minutes after the administration): clearly contrasted images of the arteriosclerotic lesions were obtained; Uptake amount [2]: 31.4 × 10^−3 nmol/μg protein; Neurotoxicity (+: present, −: absent) (Wistar rats; rat, in vivo): (−) |
| O=C(CCCCCCCCCCOc1c(I)cc(I)cc1I)OCC(COC(=O)CCCCCCCCCCOc1c(I)cc(I)cc1I)OC(=O)CN1CCOCC1 [Compound 1A-1-3] | 1A-1-3: 63% | 800 mg/kg | Uptake amount [2]: 49.8 × 10^−3 nmol/μg protein; Neurotoxicity (+: present, −: absent) (Wistar rats; rat, in vivo): (−) |
| CN(C)CC(=O)OC(COC(=O)CCCCCCCCCCOc1c(I)cc(I)cc1I)COC(=O)CCCCCCCCCCOc1c(I)cc(I)cc1I [Compound 1A-6-3] | 1A-6-3: 60% | – | – |
| O=C(CCCCCCCCCCOc1c(I)cc(I)cc1I)OCC(COC(=O)CCCCCCCCCCOc1c(I)cc(I)cc1I)OCCO [Compound 1A-7-5] | 1A-7-5: 11% | – | Uptake amount [2]: 36.1 × 10^−3 nmol/μg protein |
| CCOCCOCCOCCOC(COC(=O)CCCCCCCCCCOc1c(I)cc(I)cc1I)COC(=O)CCCCCCCCCCOc1c(I)cc(I)cc1I [Compound 1A-7-3] | 1A-7-3: 5% | – | Uptake amount [2]: 41.8 × 10^−3 nmol/μg protein |
| O=C(CCCCCCCCCCOc1c(I)cc(I)cc1I)OCC(COC(=O)CCCCCCCCCCOc1c(I)cc(I)cc1I)OC(=O)CCCCCN1CCOCC1 [Compound 1A-3-4] | 1A-3-4: 63% | 1000 mg/kg | – |

From patent publication US7371877B2, “Glycerol ester derivative” (FUJIFILM Corporation, priority 2002, dated 2008)
